# In US10869844B2, “Methods for the treatment of depression” (Janssen Pharmaceutica NV, priority 2014, dated 2020):
# Read-outs that look alike come from different tables or passages of the source.
# System: adult subjects with TRD
# Conditions: for Day 17 responders who maintained response status up to Day 35, % / Day 17 responders who maintained response status up to Day 35, number: esketamine subjects per Day 1 randomization
# [1] = Met carriers, DAY 02, randomized to esketamine Day 1
# [2] = Met carriers, DAY 07, randomized to esketamine Day 1
# [3] = Met carriers, DAY 07, randomized to placebo Day 1, esketamine from day 4 onward
# [4] = Met carriers, DAY 17, randomized to esketamine Day 1
# [5] = Met carriers, DAY 17, randomized to placebo Day 1, esketamine from day 4 onward
# [6] = Met carriers, DAY 35, randomized to esketamine Day 1
# [7] = Met carriers, DAY 35, randomized to placebo Day 1, esketamine from day 4 onward
# [8] = Met carriers, Day 0 after Day 17, all responders (Day 17)
# [9] = Met carriers, Day 0 after Day 17, esketamine responders (Day 17) per Day 1 randomization
# [10] = Met carriers, Day 4 after Day 17, all responders (Day 17)
# [11] = Met carriers, Day 4 after Day 17, esketamine responders (Day 17) per Day 1 randomization
# [12] = Met carriers, Day 18 after Day 17, all responders (Day 17)
# [13] = Met carriers, Day 18 after Day 17, esketamine responders (Day 17) per Day 1 randomization
# [14] = Val/Val (of 7), 18 days after last dose
# [15] = Val/Val, DAY 02, randomized to esketamine Day 1
structure (smiles),measurement,setting,value
"CN[C@]1(c2ccccc2Cl)CCCCC1=O.Cl [Esketamine, (S)-2-(2-chlorophenyl)-2-(methylamino)cyclohexanone hydrochloride]","Maintenance of remission, Val/Val vs Met carriers",Day 35,Remission was maintained longer in Val/Val than in Met carriers
same,"Subjects who remained well, number","Met carrier group, at Day 21, from 6",3
same,"Day 17 responders who maintained response status up to Day 35, %",Met carriers (of 6),33.3%
same,"Day 17 responders who maintained response status up to Day 35, number",Met carriers (of 6),2
same,Non-remitters %,[1],88.9%
same,Non-remitters No.,[1],8
same,Non-responders %,[1],88.9%
same,Non-responders No.,[1],8
same,Remitters % (MADRS total score 10),[1],11.1%
same,Remitters No. (MADRS total score 10),[1],1
same,Responders % (MADRS total score reduction >50%),[1],11.1%
same,Responders No. (MADRS total score reduction >50%),[1],1
same,Non-remitters %,[2],77.8%
same,Non-remitters No.,[2],7
same,Non-responders %,[2],66.7%
same,Non-responders No.,[2],6
same,Remitters % (MADRS total score 10),[2],22.2%
same,Remitters No. (MADRS total score 10),[2],2
same,Responders % (MADRS total score reduction >50%),[2],33.3%
same,Responders No. (MADRS total score reduction >50%),[2],3
same,Non-remitters %,[3],100.0%
same,Non-remitters No.,[3],1
same,Non-responders No.,[3],0
same,Remitters No. (MADRS total score 10),[3],0
same,Responders % (MADRS total score reduction >50%),[3],100.0%
same,Responders No. (MADRS total score reduction >50%),[3],1
same,Non-remitters %,[4],77.8%
same,Non-remitters No.,[4],7
same,Non-responders %,[4],33.3%
same,Non-responders No.,[4],3
same,Remitters % (MADRS total score 10),[4],22.2%
same,Remitters No. (MADRS total score 10),[4],2
same,Responders % (MADRS total score reduction >50%),[4],66.7%
same,Responders No. (MADRS total score reduction >50%),[4],6
same,Non-remitters No.,[5],0
same,Non-responders No.,[5],0
same,Remitters % (MADRS total score 10),[5],100.0%
same,Remitters No. (MADRS total score 10),[5],1
same,Responders % (MADRS total score reduction >50%),[5],100.0%
same,Responders No. (MADRS total score reduction >50%),[5],1
same,Non-remitters %,[6],77.8%
same,Non-remitters No.,[6],7
same,Non-responders %,[6],55.6%
same,Non-responders No.,[6],5
same,Remitters % (MADRS total score 10),[6],22.2%
same,Remitters No. (MADRS total score 10),[6],2
same,Responders % (MADRS total score reduction >50%),[6],44.4%
same,Responders No. (MADRS total score reduction >50%),[6],4
same,Non-remitters No.,[7],0
same,Non-responders No.,[7],0
same,Remitters % (MADRS total score 10),[7],100.0%
same,Remitters No. (MADRS total score 10),[7],1
same,Responders % (MADRS total score reduction >50%),[7],100.0%
same,Responders No. (MADRS total score reduction >50%),[7],1
same,"Duration of response, survival function estimate: Failure",[8],0
same,"Duration of response, survival function estimate: Survival",[8],1.0000
same,"Duration of response, survival function estimate: Failure",[9],0
same,"Duration of response, survival function estimate: Survival",[9],1.0000
same,"Duration of response, survival function estimate: Failure",[10],0.4286
same,"Duration of response, survival function estimate: Survival",[10],0.5714
same,"Duration of response, survival function estimate: Failure",[11],0.5000
same,"Duration of response, survival function estimate: Survival",[11],0.5000
same,"Duration of response, survival function estimate: Failure",[12],0.5714
same,"Duration of response, survival function estimate: Survival",[12],0.4286
same,"Duration of response, survival function estimate: Failure",[13],0.6667
same,"Duration of response, survival function estimate: Survival",[13],0.3333
same,"Day 17 responders who maintained response status up to Day 35, %",[14],100%
same,"Day 17 responders who maintained response status up to Day 35, number",[14],7
same,Non-remitters %,[15],37.5%
same,Non-remitters No.,[15],3
same,Non-responders %,[15],25.0%
